Measured values reported in patent US20260234187A1, “ANTIMICROBIAL PEPTIDES” (MATERIAS S.R.L., priority 2020, published 2026).
Where two headings read alike, the source gives them in different places. Where no end group is shown, it is not given here.

What was measured:
physchem = assay type: physicochemical; details: L or D configuration; ultrapure water, DMSO and DPBS
Description: The tests were carried out in three of the most common solvents used in biological applications such as: ultrapure water; DPBS (Dulbecco's Phosphate Buffered Saline), i.e., a saline buffer containing potassium chloride (KCl), monobasic potassium phosphate (KH2PO4), sodium chloride (NaCl) and dibasic sodium phosphate (Na2HPO4-7H2O) and finally in an organic solvent such as dimethylsulfoxide (DMSO).

[1] = assay type: physicochemical; details: Tris HCL pH 7, 3 mM SDS
Description: 0.1 g/L of RiLK1 peptide was dissolved in 10 mM Tris HCL at pH 7 and 3 mM SDS. The prepared samples were incubated for 24 hours at 4° C. or 25° C. and analysed at time zero and after 24 hours.

[2] = assay type: physicochemical; set-up: α-helix (Bestsel) / β-sheet (Bestsel) / Random (Bestsel): unit not given here; details: 3 mM SDS; for Random (CONTIN-LL) / α-helix (CONTIN-LL) / β-sheet (CONTIN-LL): after a 24-hour incubation
Description: 0.1 g/L of RiLK1 peptide was dissolved in 10 mM concentration solutions at different pHs, in particular: glycine-HCL buffer (pH 2); sodium acetate buffer (pH 4); tris-HCL buffer (pH 7); glycine-NaOH buffer (pH 9). After a 1-hour incubation at 25° C., samples of each solution containing 3 mM SDS were prepared.

[3] = assay type: physicochemical; details: 50 μM in 1M NaCl, 25° C.
Description: The stability analysis of the RiLK1 peptide in the presence of a high concentration saline solution (1M NaCl) was carried out by reverse phase (RP) HPLC chromatography, performed on a μBondpack C18 column. 50 μM RiLK1 peptide was dissolved in 1 M NaCl and the samples were incubated at 25° C. and monitored for 9 days.

RLKWVRIWRR-NH2 [RiLK1, RLKWVRIWRR]
maximum concentration completely dissolved (physchem): ≤ 10 mg/mL
Random (Bestsel) ([1]; 4° C., t = 24 hours): 47.5%
Random (DichroWeb CONTIN-LL) ([1]; 4° C., t = 24 hours): 38%
α-helix (Bestsel) ([1]; 4° C., t = 24 hours): 6.5%
α-helix (DichroWeb CONTIN-LL) ([1]; 4° C., t = 24 hours): 25%
β-sheet (Bestsel) ([1]; 4° C., t = 24 hours): 46%
β-sheet (DichroWeb CONTIN-LL) ([1]; 4° C., t = 24 hours): 37%
Random (Bestsel) ([1]; 25° C., t = 24 hours): 43.6%
Random (DichroWeb CONTIN-LL) ([1]; 25° C., t = 24 hours): 37%
α-helix (Bestsel) ([1]; 25° C., t = 24 hours): 6.8%
α-helix (DichroWeb CONTIN-LL) ([1]; 25° C., t = 24 hours): 24%
β-sheet (Bestsel) ([1]; 25° C., t = 24 hours): 49.7%
β-sheet (DichroWeb CONTIN-LL) ([1]; 25° C., t = 24 hours): 39%
Random (Bestsel) ([1]; t = 0): 44.9%
Random (DichroWeb CONTIN-LL) ([1]; t = 0): 36%
α-helix (Bestsel) ([1]; t = 0): 17.9%
α-helix (DichroWeb CONTIN-LL) ([1]; t = 0): 21%
β-sheet (Bestsel) ([1]; t = 0): 37.1%
β-sheet (DichroWeb CONTIN-LL) ([1]; t = 0): 43%
Random (Bestsel) ([2]; pH 2, t = 0): 44.4
Random (DichroWeb CONTIN-LL) ([2]; pH 2, t = 0): 39%
α-helix (Bestsel) ([2]; pH 2, t = 0): 18.5
α-helix (DichroWeb CONTIN-LL) ([2]; pH 2, t = 0): 22%
β-sheet (Bestsel) ([2]; pH 2, t = 0): 37
β-sheet (DichroWeb CONTIN-LL) ([2]; pH 2, t = 0): 39%
Random (Bestsel) ([2]; pH 2, t = 24 hours): 44.3
Random (DichroWeb CONTIN-LL) ([2]; pH 2, t = 24 hours): 39%
α-helix (Bestsel) ([2]; pH 2, t = 24 hours): 13.2
α-helix (DichroWeb CONTIN-LL) ([2]; pH 2, t = 24 hours): 17%
β-sheet (Bestsel) ([2]; pH 2, t = 24 hours): 42.5
β-sheet (DichroWeb CONTIN-LL) ([2]; pH 2, t = 24 hours): 44%
Random (Bestsel) ([2]; pH 4, t = 0): 52.4
Random (DichroWeb CONTIN-LL) ([2]; pH 4, t = 0): 36%
α-helix (Bestsel) ([2]; pH 4, t = 0): 7.7
α-helix (DichroWeb CONTIN-LL) ([2]; pH 4, t = 0): 23%
β-sheet (Bestsel) ([2]; pH 4, t = 0): 39.8
β-sheet (DichroWeb CONTIN-LL) ([2]; pH 4, t = 0): 41%
Random (Bestsel) ([2]; pH 4, t = 24 hours): 41.2
Random (DichroWeb CONTIN-LL) ([2]; pH 4, t = 24 hours): 35%
α-helix (Bestsel) ([2]; pH 4, t = 24 hours): 13.3
α-helix (DichroWeb CONTIN-LL) ([2]; pH 4, t = 24 hours): 24%
β-sheet (Bestsel) ([2]; pH 4, t = 24 hours): 45.5
β-sheet (DichroWeb CONTIN-LL) ([2]; pH 4, t = 24 hours): 41%
Random (Bestsel) ([2]; pH 7, t = 0): 45.4
Random (DichroWeb CONTIN-LL) ([2]; pH 7, t = 0): 36%
α-helix (Bestsel) ([2]; pH 7, t = 0): 15
α-helix (DichroWeb CONTIN-LL) ([2]; pH 7, t = 0): 25%
β-sheet (Bestsel) ([2]; pH 7, t = 0): 39.5
β-sheet (DichroWeb CONTIN-LL) ([2]; pH 7, t = 0): 39%
Random (Bestsel) ([2]; pH 7, t = 24 hours): 40.8
Random (DichroWeb CONTIN-LL) ([2]; pH 7, t = 24 hours): 37%
α-helix (Bestsel) ([2]; pH 7, t = 24 hours): 15.5
α-helix (DichroWeb CONTIN-LL) ([2]; pH 7, t = 24 hours): 19%
β-sheet (Bestsel) ([2]; pH 7, t = 24 hours): 43.8
β-sheet (DichroWeb CONTIN-LL) ([2]; pH 7, t = 24 hours): 44%
Random (Bestsel) ([2]; pH 9, t = 0): 44.4
Random (DichroWeb CONTIN-LL) ([2]; pH 9, t = 0): 39%
α-helix (Bestsel) ([2]; pH 9, t = 0): 13.7
α-helix (DichroWeb CONTIN-LL) ([2]; pH 9, t = 0): 19%
β-sheet (Bestsel) ([2]; pH 9, t = 0): 42
β-sheet (DichroWeb CONTIN-LL) ([2]; pH 9, t = 0): 42%
Random (Bestsel) ([2]; pH 9, t = 24 hours): 42.9
Random (DichroWeb CONTIN-LL) ([2]; pH 9, t = 24 hours): 24%
α-helix (Bestsel) ([2]; pH 9, t = 24 hours): 13.4
α-helix (DichroWeb CONTIN-LL) ([2]; pH 9, t = 24 hours): 29%
β-sheet (Bestsel) ([2]; pH 9, t = 24 hours): 43.8
β-sheet (DichroWeb CONTIN-LL) ([2]; pH 9, t = 24 hours): 47%
Random (CONTIN-LL) ([2]; Table 8: pH 2): 39%
α-helix (CONTIN-LL) ([2]; Table 8: pH 2): 22%
β-sheet (CONTIN-LL) ([2]; Table 8: pH 2): 39%
Random (CONTIN-LL) ([2]; Table 8: pH 4): 36%
α-helix (CONTIN-LL) ([2]; Table 8: pH 4): 23%
β-sheet (CONTIN-LL) ([2]; Table 8: pH 4): 41%
Random (CONTIN-LL) ([2]; Table 8: pH 7): 36%
α-helix (CONTIN-LL) ([2]; Table 8: pH 7): 25%
β-sheet (CONTIN-LL) ([2]; Table 8: pH 7): 39%
Random (CONTIN-LL) ([2]; Table 8: pH 9): 39%
α-helix (CONTIN-LL) ([2]; Table 8: pH 9): 19%
β-sheet (CONTIN-LL) ([2]; Table 8: pH 9): 42%
yield ([3]; 5 hours): +6%
yield ([3]; 24 hours): +6%
yield ([3]; 29 hours): +3%
yield ([3]; 48 hours): −1.5%^
yield ([3]; 53 hours): +4.3%^
yield ([3]; 6 days): −6.3%^
yield ([3]; 9 days): −8%
